Consider 1 compound from patent US20010046996A1, “Use of a compound for preparing a drug” (priority 2000, published 2001).

Each structure is given as a SMILES string. Bounds are passed on as bounds.

Common to all, as to format: in vivo
Series [1] has as its system rabbit. Nature of the series: Acute toxicity, cutaneous, rabbit. As to the method:
(§1) The tested substance(B-220), was administered daily with 6 mg/animal, a dose that can be increased since the margin to toxic effects is wide and most likely further reduce the symptoms. It is to be noted that the acute toxicity of the tested substance used according to the present invention is low, which is exemplified with the following: […]

Series [2] deals with Lewis rats. Nature of the series: EAE (experimental autoimmune encephalomyelitis) rat model for MS, clinical score. Particulars: for delay of onset / recovery starts earlier: FIG. 2, versus control.
In series [3] the test system is mice. Nature of the series: Chronic toxicity on mice. The settings on record: tested up to 270 days.
Series [4] has as its system rat. In words: Acute toxicity, rat. As for the experimental part:
as §1

On to `Cc1cc2nc3c4ccccc4n(CCN(C)C)c3nc2cc1C` [B-220], for which the “NOEL (No Observable Effect Level)” value in series [1] is listed as 200 mg/kg bw; in series [4] (intravenous), 12.5 mg/kg bw. In addition, in series [2] (FIG. 1, B-220 daily 6 mg/animal, Interferon-beta daily 3×10^5 U/animal, versus negative control), the “reduction of the CNS symptoms (clinical score)” value is 2/3. The delay of onset was ~2 days in series [2] (6 mg/animal) and ~4 days in series [2] (12 mg/animal). The recovery starts earlier was ~2 days in series [2] (6 mg/animal) and ~3 days in series [2] (12 mg/animal). For the same compound, the chronic toxicity entry in series [3] is “has not induced toxicity”. Further, the LD50 is listed as > 100 mg/kg bw in series [4] (intravenous) and > 800 mg/kg bw in series [4] (oral).
